Experimental data as given in patent publication US9353154B2, “Compositions for labeling nerves and methods of use” (Avelas Biosciences, Inc., priority 2010, dated 2016).
“Also recorded” adds a separate entry of the source. Where a SMILES comes first, the peptide text is derived from it. The star is where a group is joined. 6FAM = O=C1OC2(c3ccc(O)cc3Oc3cc(O)ccc32)c2cc(C(=O)*)ccc21

How the values were obtained:
[1] = Stability of peptide A in saline (control); format: physicochemical; details: 48 h
Description: (§1) 6-Carboxylfluorescein (6-FAM) labeled peptide A (1 mg) was added to freshly prepared mouse plasma (0.5 mL). The resulting solution was gently mixed and incubated at 37° C. The reaction was followed by an LC-MS at different time points. An analogous procedure was done at room temperature with 1-5 mg of Peptide A.
The peak was isolated by preparative RP-HPLC. […] As a control, peptide A is stable in saline after 48 h (Chart E&F, FIG. 5).

[2] = Plasma digestion of Peptide A followed by LC-MS; format: in vitro ADME; details: mouse plasma, 37° C.
Description: as §1

mouse skin = test: In vivo skin fluorescence (full body imaging, skin staining activity); details: 150 nmol via tail vein injection, imaging at 2 h
Description: (§2) Fluorescence contrast activity of was assessed using male euthymic and immunocompetent hairless SKH1-E mice (25-35 grams). On the day of study, each involved mouse was weighed and restrained using the rotating tail injector for intravenous (tail vein) injection in conscious animal.
(§3) Test agents were injected intravenously into the tail vein (30-150 nmol in 0.1 mL/mouse). The animals were returned to assigned cage and kept under controlled environmental conditions before being examined for sciatic nerve fluorescence labeling 2 hours later.
(§4) Two hours after the intravenous injection, the mice were anesthetized with a mixture of ketamine HCl/Xylazine HCl solution administered intraperitoneally. The deeply anesthetized mice were transferred on the piece of cork for blunt dissection of sciatic nerve.
Full body imaging of deeply anesthetized mouse with open surgical wound/exposed sciatic nerve was then performed using a computerized imaging system with appropriate excitation/emission filters. The full body imaging was used to calculate the skin staining activity of the visualization agents.

mouse sciatic nerve = test: In vivo sciatic nerve fluorescence contrast (nerve vs surrounding muscle); details: 150 nmol via tail vein injection, imaging at 2 h
Description: as §2, §3, §4
After the full body imaging, the deeply anesthetized mice were transferred on the computerized fluorescent stereomicroscope equipped with appropriate excitation/emission filters to examine and record the fluorescence specific to sciatic nerve and compare it to that documented on the surrounding tissues such as muscle. All captured images were examined and analyzed using Image J to generate quantitative data.
For each experimental group, fluorescence intensities from each mouse sciatic nerve were averaged to generate the Mean±SEM value. The background was defined as the average fluorescence intensities of the muscle tissue surrounding the sciatic nerve. The fluorescence contrast (C) is defined and calculated as C=(IN−IB)/IB, where IN is the average nerve fluorescence intensity and IB is the average proximal background intensity. Constrast>0.4 is considered good.

Compound	stability in saline [1]	digested products in plasma ([2]; 3 h)	digestion in plasma (HPLC chromatogram, 220 nm absorbance) ([2]; 20 h)	digestion in plasma (HPLC chromatogram, 220 nm absorbance) ([2]; 48 h)	major truncated component after plasma digestion ([2]; peak isolated by preparative RP-HPLC)	skin fluorescence compared to peptide A (mouse skin)	skin fluorescence compared to peptide A (mouse skin; listed as peptide 3)	fluorescence nerve contrast (mouse sciatic nerve)	fluorescence nerve contrast relative to peptide A (mouse sciatic nerve)	fluorescence nerve contrast (mouse sciatic nerve; listed as peptide 3)
CC(=O)N[C@@H](CO)C(=O)N[C@@H](Cc1c[nH]cn1)C(=O)N[C@@H](CO)C(=O)N[C@@H](CC(N)=O)C(=O)N[C@H](C(=O)N[C@@H](CCC(N)=O)C(=O)N[C@H](C(=O)N[C@@H](CC(C)C)C(=O)N[C@@H](C)C(=O)N[C@@H](CCCCN)C(=O)N[C@@H](C)C(=O)N1CCC[C@H]1C(=O)N[C@@H](CCC(=O)O)C(=O)N[C@@H](Cc1c[nH]cn1)C(=O)N[C@H](C(=O)NCC(=O)N[C@@H](CCCCNC(=O)c1ccc2c(c1)C1(OC2=O)c2ccc(O)cc2Oc2cc(O)ccc21)C(N)=O)[C@@H](C)O)[C@@H](C)O)[C@@H](C)O [Peptide A, Ac-Ser-His-Ser-Asn-Thr-Gln-Thr-Leu-Ala-Lys-Ala-Pro-Glu-His-Thr-Gly-Lys(6FAM)-NH2] (Ac-SHSNTQTLAKAPEHTGK(6FAM)-NH2)	stable	No detectable digested products	a new peak appeared	a new peak appeared	C-terminus lysine labeled with 6-FAM					
Ac-Glu-His-Thr-Gly-Lys(6FAM)-NH2 (Ac-EHTGK(6FAM)-NH2; SMILES CC(=O)N[C@@H](CCC(=O)O)C(=O)N[C@@H](Cc1c[nH]cn1)C(=O)N[C@H](C(=O)NCC(=O)N[C@@H](CCCCNC(=O)c1ccc2c(c1)C1(OC2=O)c2ccc(O)cc2Oc2cc(O)ccc21)C(N)=O)[C@@H](C)O) [Peptide 3]						significantly less	much less	high	greater	excellent; also recorded: very high
